# Source: US12629390B2, “Stabilized amorphous calcium carbonate for treatment of neurological, muscular and infertility diseases or conditions” (AMORPHICAL LTD., priority 2016, dated 2026)
# Test system: mice embryos
# Test: in vitro embryo development in Quinn's Advantage cleavage media
# Assay type: cell-based
# Protocol: CBA male mice were bred with BL C57 female mice. The mice were kept on a 12 hours photoperiod schedule with unlimited water and food supply. About 6 to 8 weeks after receiving offspring, each female mouse was injected IP with 5IU of pregnant mare serum gonadotropin (PMSG).
# After 48 hours each female mouse was injected IP with 5IU human chorionic gonadotropin (hCG). Male mice proven to be fertile were then put together with the superovulated females. The next morning the female mice were examined for the presence of copulatory plugs. Females that had copulatory plugs were euthanized after 24 hours (approximately 36 hours post-coitus) and embryos at 2 cell stage were retrieved from the oviducts as following: the oviducts were dissected in Quinn's Advantage cleavage media (SAGE, Origio, Denmark) and the embryos were transferred to 20 μL drops with Quinn's Advantage cleavage media (SAGE, Origio, Denmark) overlaid with mineral oil and cultured at 37.0° C. under 5% CO2 and atmospheric oxygen. The collected embryos continued to grow, i.e. in-vitro culture (IVC), until blastocyst/hatching stage. To test the effect of amorphous calcium carbonate, the Quinn's Advantage cleavage media (“cleavage media” hereinafter) was supplemented with different additives, i.e. amorphous calcium carbonate stabilized by polyphosphate (ACC-PP), crystalline calcium carbonate (CCC), polyphosphate (PP), phosphoserine (PS) or sodium carbonate ([…]). All supplements were added as a freshly prepared suspension; the preparation of the ACC supplements were performed under aseptic conditions. Untreated cleavage media (without addition of any additive) was used as a control (identified as Cont Q). The embryos were evaluated every day by microscope observation for a detection of the following stages: 2 cells, compactions stage, blastocysts formation and hatching stage. The fraction (in percent) of the embryos reached each stage was calculated (the number of 2 cells embryos was set as 100%).
# [1] = Example 9 Test A, 1.7 mM in cleavage media
# [2] = Example 9 Test B, 1.7 mM CaCl2 or ACC-PP in cleavage media
# [3] = Example 10, 1.7 mM CaCl2 or ACC-PP in cleavage media
# [4] = Example 11, 1.7 mM in cleavage media
# [5] = Example 12, mouse 1, embryos grown separately, 1.7 mM in cleavage media
# [6] = Example 12, mouse 2, embryos grown separately, 1.7 mM in cleavage media
# [7] = Example 12, mouse 3, embryos grown separately, 1.7 mM in cleavage media
# [8] = Example 12, mouse 4, embryos grown separately, 1.7 mM in cleavage media
# [9] = Example 16, pooled embryos, 1.7 mM in cleavage media
smiles,measurement,setting,value
"[Ca+2].[Cl-].[Cl-] [CaCl2, calcium chloride]",Blast/d3: number of embryos,[1],16
same,Blast/d3: portion of the initial number of embryos,[1],64%
same,Comp/d2: portion of the initial number of embryos,[1],64%
same,comp/d2: number of embryos,[1],16
same,Blast/d3: number of embryos,[2],20
same,Blast/d3: portion of the initial number of embryos,[2],74%
same,Comp/d2: portion of the initial number of embryos,[2],70%
same,Hatch/d4: number of embryos,[2],11
same,Hatch/d4: portion of the initial number of embryos,[2],40.7%
same,comp/d2: number of embryos,[2],20
same,Blast/d3: number of embryos,[3],8
same,Blast/d3: portion of the initial number of embryos,[3],80%
same,Comp/d2: portion of the initial number of embryos,[3],30%
same,Hatch/d4: number of embryos,[3],3
same,Hatch/d4: portion of the initial number of embryos,[3],30%
same,comp/d2: number of embryos,[3],3
same,Blast/d3: number of embryos,[4],24
same,Blast/d3: portion of the initial number of embryos,[4],80%
same,Comp/d2: portion of the initial number of embryos,[4],53.3%
same,Hatch/d4: number of embryos,[4],13
same,Hatch/d4: portion of the initial number of embryos,[4],43.3%
same,comp/d2: number of embryos,[4],16
same,2Cell/d1: number of embryos,[5],3
same,8Cell/d2: number of embryos,[5],2
same,Blast/d3: number of embryos,[5],1
same,Blast/d3: portion of the initial number of embryos,[5],8.3%
same,Hatch/d4: number of embryos,[5],0 (0)
same,Hatch/d4: portion of the initial number of embryos,[5],0 (0) %
same,comp/d2: number of embryos,[5],1
same,irreg/d1: number of embryos,[5],9
same,2Cell/d1: number of embryos,[6],3
same,8Cell/d2: number of embryos,[6],0
same,Blast/d3: number of embryos,[6],2
same,Blast/d3: portion of the initial number of embryos,[6],22.2%
same,Hatch/d4: number of embryos,[6],0 (0)
same,Hatch/d4: portion of the initial number of embryos,[6],0 (0) %
same,comp/d2: number of embryos,[6],3
same,irreg/d1: number of embryos,[6],6
same,2Cell/d1: number of embryos,[7],7
same,8Cell/d2: number of embryos,[7],0
same,Blast/d3: number of embryos,[7],5
same,Blast/d3: portion of the initial number of embryos,[7],50%
same,Hatch/d4: number of embryos,[7],3
same,Hatch/d4: portion of the initial number of embryos,[7],30%
same,comp/d2: number of embryos,[7],6
same,irreg/d1: number of embryos,[7],3
same,2Cell/d1: number of embryos,[8],14
same,8Cell/d2: number of embryos,[8],4
same,Blast/d3: number of embryos,[8],12
same,Blast/d3: portion of the initial number of embryos,[8],66.7%
same,Hatch/d4: number of embryos,[8],7
same,Hatch/d4: portion of the initial number of embryos,[8],41.2%
same,comp/d2: number of embryos,[8],10
same,irreg/d1: number of embryos,[8],4
same,effect on embryonic development (percentages of blastocysts and hatched blastocysts),"Example 16, 1.7 mM in cleavage media",negative effect
same,8 cell/d2: number of embryos,[9],6
same,Blast/d3: number of embryos,[9],10
same,Blast/d3: portion of the initial number of embryos,[9],90.90%
same,Hatch/d4: number of embryos,[9],4
same,Hatch/d4: portion of the initial number of embryos,[9],36.36%
same,comp/d2: number of embryos,[9],5
